Results on five molecules are retold here after patent publication US11324767B2, “Drug combination treatments using bone-targeting therapeutics for bone and bone-related disease” (MBC Pharma, Inc., priority 2017, dated 2022).

Broadly, the MTD is the largest dose that counted as tolerated. A high value points to better tolerability. By IC50 is commonly meant the concentration needed to halve the response being measured.

Molecules are shown by their SMILES. Read-outs that look alike come from different tables or passages of the source.

Data set [1] can be described thus: in vivo MicroCT of bone in OS mouse model. To be noted: in vivo MicroCT 22 days after starting treatment; 6 mg/kg IB or 14 mg/kg GEM-IB.
Method: To ensure the health of mice throughout a longer study, doses were reduced to 6 mg/kg IB and equimolar doses of GEM-IB (14 mg/kg) and GEM (6 mg/kg) with 15 mg/kg DTX. Mice were implanted with the 143B-luc cells via intratibial injection and treatment started 4 days after implantation.
The nature of data set [2]: tolerability in mice (weight loss, nephrotoxicity).
Method: (§1) 143B-luc cells were then implanted into nude mice via intratibial injection, creating an orthotopic model for OS. The presence and growth of tumors was confirmed with in vivo imaging (Xenogen). Mice (N=8/treatment group) were then treated with 60 mg/kg GEM twice weekly and 15 mg/kg DTX once weekly, alone or in combination (15 mg/kg DTX with 20, 40 or 60 mg/kg GEM) and monitored for weight loss and tumor growth.
(§2) Tolerability for IB and GEM-IB was tested in a mouse model system. […] To ensure the health of mice throughout a longer study, doses were reduced to 6 mg/kg IB and equimolar doses of GEM-IB (14 mg/kg) and GEM (6 mg/kg) with 15 mg/kg DTX. Mice were implanted with the 143B-luc cells via intratibial injection and treatment started 4 days after implantation.
(§3) Mice were then treated with GEM-IB, GEM-IB with DTX, or the individual agents of GEM, DTX, or IB.
The test system of data set [3] is prostate cancer induced bone disease. Description: in vivo model of prostate cancer induced bone disease.
Method: (§4) MBC-11 was tested in recently completed phase I clinical trials in patients with CIBD.
Data set [4] can be described thus: MTD and tolerability of GEM-IB dosing regimens. It counts as in vivo. From the text:
The MTD of the conjugate of Gemcitabine-to-Ibandronate is lower than that of MBC-1. Therefore, a conjugate of Gemcitabine-to-Ibandronate can be administered at or below 5/mg/kg/day via a 2-hour infusion for up to 5 consecutive days and Xofigo administered at or below its standard of care dosing regimen.

The conditions of data set [5]: mouse, in vivo.
Method: as §1, §2, §3
The subject of data set [6] is 143B-luc cells. Kind of data set: orthotopic OS model: Kaplan-Meier survival until euthanasia due to large tumor size. To be noted: euthanized when largest tumor-laden leg diameter reached 10 mm above normal leg diameter (FIG. 4).
From the text: Mice were euthanized when largest tumor-laden leg diameter reached 10 mm above normal leg diameter. […] Mice euthanized for weight loss are not indicated as deaths in this chart, and are indicated as tick marks on day euthanized.
Data set [7] concerns 143B-luc. Description: cell culture treatment of human OS cell line 143B-luc (IC50, Bliss analysis).
Method: This was determined in culture with a human OS cell line—143B-luc (143B cells were transfected to express luciferase (luc) for use in a mouse model system).
A short description of data set [8]: clinically established MTD of MBC-11. To be noted: 2-hour infusion for up to 5 consecutive days. It counts as in vivo, Human. The method, then:
The current clinically established MTD of MBC-11 indicates the method should be used where MBC-11 is administered at or below 5/mg/kg/day via a 2-hour infusion for up to 5 consecutive days and Xofigo is administered at or below the standard of care dosing regimen.

Data set [9] has as its system bone lesions. Kind of data set: phase I clinical trials of MBC-11 in patients with CIBD, bone lesions imaged by 18F-FDG-PET/CT. To be noted: 15 patients, after MBC-11 therapy.
Method: as §4
[10] abbreviates: 60 mg/kg GEM twice weekly alone, 15 mg/kg DTX once weekly alone, or 15 mg/kg DTX with 20 or 40 mg/kg GEM, N=8/group.

Consider `CCCCCN(C)CCC(O)(P(=O)(O)O)P(=O)(O)O` [IB, ibandronate], for which, in data set [1], the bone volume density result is “high” and the trabecular number result was “high”. For the same molecule, the weight loss result in [2] (IB 12 mg/kg twice weekly) is listed as “only minimal weight loss”. Also, the nephrotoxicity result in [2] (at higher levels) is given as “possible nephrotoxicity”. The tolerability result in [2] (at lower doses) was “well tolerated”.
For `CCCCCN(C)CCC(O)(P(=O)(O)O)P(=O)(O)OP(=O)(O)OC[C@H]1O[C@@H](n2ccc(N)nc2=O)C(F)(F)[C@@H]1O` (stereo partly shown) [GEM-IB], in [3] (in vivo), the “activity compared to GEM-etidronate (GEM-ET), MBC-11 and cytarabine-IB” value was “more active”; the metastases after treatment result is recorded as “significantly reduced”. Also, in data set [3] (study not designed for a survival endpoint), the survival result is reported as “improved survival trend”. In addition, in data set [4] (Monday, Wednesday and Friday dosing for three weeks at twice the 6 mg/kg daily dose), the tolerability result is recorded as “well tolerated”. In addition, the MTD in data set [4] (dosing for five sequential days) was determined as 6 mg/kg/day. In addition, the “MTD compared with MBC-1” value in [4] (in vivo) is listed as “lower”. In [1], the bone volume density result is reported as “high” and the trabecular number result is reported as “high”. Further, in [5], the nephrotoxicity result is listed as “possible nephrotoxicity” and the tolerability result is recorded as “well tolerated”. Moreover, in data set [6], the “day after treatment initiation from which mice were sacrificed” value came to 28 days.
For `Nc1ccn([C@@H]2O[C@H](CO)[C@@H](O)C2(F)F)c(=O)n1` [GEM, Gemcitabine], in [2] (setting [10]), the weight loss entry was “did not exhibit any weight loss”. The molecule further yielded an IC50 in data set [7] (Homo sapiens) of 9 nM.
For the molecule `CC(O)(P(=O)(O)O)P(=O)(O)OP(=O)(O)OC[C@H]1O[C@@H](n2ccc(N)nc2=O)[C@@H](O)[C@@H]1O` (stereo partly shown) [MBC-11], the “dose indicated by the clinically established MTD” value in data set [8] was “up to 5 /mg/kg/day”. Besides, the “bone lesions with a significant reduction (>25%) in glucose avidity” value in data set [9] (206 bone lesions imaged (18F-FDG-PET/CT)) turned out to be 111 lesions. Further, in [9] (206 bone lesions imaged), the “bone lesions significantly reduced in activity” value came to 53.8%.
Turning to `CC(=O)O[C@@]12CO[C@@H]1C[C@H](O)[C@@]1(C)C(=O)[C@H](O)C3=C(C)[C@@H](OC(=O)[C@H](O)[C@@H](NC(=O)OC(C)(C)C)c4ccccc4)C[C@@](O)([C@@H](OC(=O)c4ccccc4)[C@H]21)C3(C)C` [DTX, docetaxel], the weight loss result in [2] (setting [10]) was “did not exhibit any weight loss”. Further, the IC50 in data set [7] (143B-luc cells in culture, individual drug agent) is 72 nM; in [7] (read-out: IC50 of DTX in the presence of GEM, 143B-luc cells in culture, in the presence of 1 nM GEM), 0.12 nM. The “reduction of IC50 of DTX” value in [7] (in the presence of 1 nM GEM versus DTX alone) was found to be 600 fold.
